Results published in patent US20120101095A1, “ALKOXY-THIENOPYRIMIDINES AS TGF-BETA RECEPTOR KINASE MODULATORS” (priority 2009, published 2012).

Biological target: T1, GST-ALK5 (Homo sapiens, UniProt P36897)
T1 sequence (P36897 34-503): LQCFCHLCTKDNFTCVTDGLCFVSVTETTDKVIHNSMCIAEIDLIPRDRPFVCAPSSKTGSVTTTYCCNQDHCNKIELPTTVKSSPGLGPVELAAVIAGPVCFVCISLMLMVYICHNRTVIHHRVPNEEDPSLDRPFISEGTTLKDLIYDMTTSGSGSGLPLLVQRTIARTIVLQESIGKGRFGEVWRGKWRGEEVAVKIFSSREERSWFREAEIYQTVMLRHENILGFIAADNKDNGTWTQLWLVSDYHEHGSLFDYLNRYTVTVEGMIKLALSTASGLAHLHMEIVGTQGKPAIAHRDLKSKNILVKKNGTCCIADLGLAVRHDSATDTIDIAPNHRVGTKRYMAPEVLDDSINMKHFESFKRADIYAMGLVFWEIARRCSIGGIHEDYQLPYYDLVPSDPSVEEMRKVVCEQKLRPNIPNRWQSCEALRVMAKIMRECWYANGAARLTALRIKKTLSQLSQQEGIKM
Experiment: In-vitro (enzyme) kinase assay, 384-well flashplate, GST-SMAD2 substrate
Format: biochemical
Conditions: 31.2 nM GST-ALK5, 439 nM GST-SMAD2, 3 mM ATP, 30° C., 45 min
Description: In-Vitro (Enzyme) Assay for Determination of the Efficacy of Inhibitors of the Inhibition of TGF-Beta-Mediated Effects
The kinase assay was carried out as 384-well flashplate assay. 31.2 nM of GST-ALK5, 439 nM of GST-SMAD2 and 3 mM of ATP (with 0.3 μCi of ^33P-ATP/well) were incubated in a total volume of 35 μl (20 mM of HEPES, 10 mM of MgCl2, 5 mM of MnCl2, 1 mM of DTT, 0.1% of BSA, pH 7.4) without or with test substance (5-10 concentrations) at 30° C. for 45 min. The reaction was stopped using 25 μl of 200 mM EDTA solution, filtered with suction at room temperature after 30 min, and the wells were washed with 3 times 100 μl of 0.9% NaCl solution. Radioactivity was measured in the TopCount. The IC50 values were calculated using RS1 (Table 1). Above and below, all temperatures were indicated in ° C.

SMILES | IC50 [nM]
NC(=O)c1sc2nc(OC[C@H](O)CO)nc(-c3cccc(Cl)c3)c2c1N [No 50, 5-Amino-4-(3-chloro-phenyl)-2-((R)-2,3-dihydroxy-propoxy)-thieno[2,3-d]pyrimidine-6-carboxylic acid amide] | 100 to 500
Cc1ncsc1CCOc1nc(-c2cccc(Cl)c2)c2c(N)c(C(N)=O)sc2n1 [No 51, 5-Amino-4-(3-chloro-phenyl)-2-[2-(4-methyl-thiazol-5-yl)-ethoxy]-thieno[2,3-d]pyrimidine-6-carboxylic acid amide] | < 100
COCc1cnn(CCOc2nc(-c3cccc(Cl)c3)c3c(N)c(C(N)=O)sc3n2)c1 [No 52, 5-Amino-4-(3-chloro-phenyl)-2-[2-(4-methoxymethyl-pyrazol-1-yl)-ethoxy]-thieno[2,3-d]pyrimidine-6-carboxylic acid amide] | 100 to 500
Cc1cccc(-c2nc(OCCN3CCCC3=O)nc3sc(C(N)=O)c(N)c23)n1 [No 53, 5-Amino-4-(6-methyl-pyridin-2-yl)-2-[2-(2-oxo-pyrrolidin-1-yl)-ethoxy]-thieno[2,3-d]pyrimidine-6-carboxylic acid amide] | 100 to 500
NC(=O)c1sc2nc(OCCCN3CCCC3=O)nc(-c3cccc(Cl)c3)c2c1N [No 54, 5-Amino-4-(3-chloro-phenyl)-2-[3-(2-oxo-pyrrolidin-1-yl)-propoxy]-thieno[2,3-d]pyrimidine-6-carboxylic acid amide] | 100 to 500
NC(=O)c1sc2nc(OCCN3CCOCC3=O)nc(-c3cccc(Cl)c3)c2c1N [No 55, 5-Amino-4-(3-chloro-phenyl)-2-[2-(3-oxo-morpholin-4-yl)-ethoxy]-thieno[2,3-d]pyrimidine-6-carboxylic acid amide] | < 100
NC(=O)COc1nc(-c2cccc(Cl)c2)c2c(N)c(C(N)=O)sc2n1 [No 56, 5-Amino-2-carbamoylmethoxy-4-(3-chloro-phenyl)-thieno[2,3-d]pyrimidine-6-carboxylic acid amide] | < 100
NC(=O)c1sc2nc(OCCN3CCOC3=O)nc(-c3cccc(Cl)c3)c2c1N [No 57, 5-Amino-4-(3-chloro-phenyl)-2-[2-(2-oxo-oxazolidin-3-yl)-ethoxy]-thieno[2,3-d]pyrimidine-6-carboxylic acid amide] | < 100
NC(=O)c1sc2nc(OC/C=C\CO)nc(-c3cccc(Cl)c3)c2c1N [No 58, 5-Amino-4-(3-chloro-phenyl)-2-((Z)-4-hydroxy-but-2-enyloxy)-thieno[2,3-d]pyrimidine-6-carboxylic acid amide] | < 100
NC(=O)c1sc2nc(OCC#CCO)nc(-c3cccc(Cl)c3)c2c1N [No 59, 5-Amino-4-(3-chloro-phenyl)-2-(4-hydroxy-but-2-ynyloxy)-thieno[2,3-d]pyrimidine-6-carboxylic acid amide] | < 100
NC(=O)c1sc2nc(OC[C@H]3C[C@@H]3CO)nc(-c3cccc(Cl)c3)c2c1N [No 60, 5-Amino-4-(3-chloro-phenyl)-2-((1S,2S)-2-hydroxymethyl-cyclopropylmethoxy)-thieno[2,3-d]pyrimidine-6-carboxylic acid amide] | < 100
NC(=O)c1sc2nc(OCCN3CCNC3=O)nc(-c3cccc(Cl)c3)c2c1N [No 61, 5-Amino-4-(3-chloro-phenyl)-2-[2-(2-oxo-imidazolidin-1-yl)-ethoxy]-thieno[2,3-d]pyrimidine-6-carboxylic acid amide] | 100 to 500
NC(=O)c1sc2nc(OCCC(O)CO)nc(-c3cccc(Cl)c3)c2c1N (centres unmarked) [No 62, 5-Amino-4-(3-chloro-phenyl)-2-(3,4-dihydroxy-butoxy)-thieno[2,3-d]pyrimidine-6-carboxylic acid amide] | < 100
NC(=O)c1sc2nc(O[C@H]3CNC(=O)C3)nc(-c3cccc(Cl)c3)c2c1N [No 63, 5-Amino-4-(3-chloro-phenyl)-2-((R)-5-oxo-pyrrolidin-3-yloxy)-thieno[2,3-d]pyrimidine-6-carboxylic acid amide] | 100 to 500
NC(=O)c1sc2nc(OC3CCC(O)C3)nc(-c3cccc(Cl)c3)c2c1N (centres unmarked) [No 64, 5-Amino-4-(3-chloro-phenyl)-2-(3-hydroxy-cyclopentyloxy)-thieno[2,3-d]pyrimidine-6-carboxylic acid amide] | 100 to 500
NC(=O)c1sc2nc(OCC3(CO)CC3)nc(-c3cccc(Cl)c3)c2c1N [No 65, 5-Amino-4-(3-chloro-phenyl)-2-(1-hydroxymethyl-cyclopropylmethoxy)-thieno[2,3-d]pyrimidine-6-carboxylic acid amide] | 100 to 500
NC(=O)c1sc2nc(OCCOCCO)nc(-c3cccc(Cl)c3)c2c1N [No 66, 5-Amino-4-(3-chloro-phenyl)-2-[2-(2-hydroxy-ethoxy)-ethoxy]-thieno[2,3-d]pyrimidine-6-carboxylic acid amide] | 100 to 500
NC(=O)c1sc2nc(OCC3CCC(CO)CC3)nc(-c3cccc(Cl)c3)c2c1N (centres unmarked) [No 67, 5-Amino-4-(3-chloro-phenyl)-2-(4-hydroxymethyl-cyclohexylmethoxy)-thieno[2,3-d]pyrimidine-6-carboxylic acid amide] | 100 to 500
CC(C)(CO)COc1nc(-c2cccc(Cl)c2)c2c(N)c(C(N)=O)sc2n1 [No 68, 5-Amino-4-(3-chloro-phenyl)-2-(3-hydroxy-2,2-dimethyl-propoxy)-thieno[2,3-d]pyrimidine-6-carboxylic acid amide] | 100 to 500
NC(=O)CCCOc1nc(-c2cccc(Cl)c2)c2c(N)c(C(N)=O)sc2n1 [No 69, 5-Amino-2-(3-carbamoyl-propoxy)-4-(3-chloro-phenyl)-thieno[2,3-d]pyrimidine-6-carboxylic acid amide] | 100 to 500
CNC(=O)CCCOc1nc(-c2cccc(Cl)c2)c2c(N)c(C(N)=O)sc2n1 [No 70, 5-Amino-4-(3-chloro-phenyl)-2-(3-methylcarbamoyl-propoxy)-thieno[2,3-d]pyrimidine-6-carboxylic acid amide] | 100 to 500
NC(=O)c1sc2nc(OC/C=C/CO)nc(-c3cccc(Cl)c3)c2c1N [No 71, 5-Amino-4-(3-chloro-phenyl)-2-((E)-4-hydroxy-but-2-enyloxy)-thieno[2,3-d]pyrimidine-6-carboxylic acid amide] | < 100
N#CCCOc1nc(-c2cccc(Cl)c2)c2c(N)c(C(N)=O)sc2n1 [No 72, 5-Amino-4-(3-chloro-phenyl)-2-(2-cyano-ethoxy)-thieno[2,3-d]pyrimidine-6-carboxylic acid amide] | < 100
NC(=O)c1sc2nc(OCC3CCCO3)nc(-c3cccc(Cl)c3)c2c1N (centres unmarked) [No 73, 5-Amino-4-(3-chloro-phenyl)-2-(tetrahydro-furan-2-ylmethoxy)-thieno[2,3-d]pyrimidine-6-carboxylic acid amide] | 100 to 500
NC(=O)c1sc2nc(OCc3ccn(CCO)n3)nc(-c3cccc(Cl)c3)c2c1N [No 74, 5-Amino-4-(3-chloro-phenyl)-2-[1-(2-hydroxy-ethyl)-1H-pyrazol-3-ylmethoxy]-thieno[2,3-d]pyrimidine-6-carboxylic acid amide] | < 100
NC(=O)c1sc2nc(OC[C@@H]3CCC(=O)N3)nc(-c3cccc(Cl)c3)c2c1N [No 75, 5-Amino-4-(3-chloro-phenyl)-2-((S)-5-oxo-pyrrolidin-2-ylmethoxy)-thieno[2,3-d]pyrimidine-6-carboxylic acid amide] | 100 to 500
NC(=O)c1sc2nc(OC[C@@H]3CCCN3)nc(-c3cccc(Cl)c3)c2c1N [No 76, 5-Amino-4-(3-chloro-phenyl)-2-((S)-1-pyrrolidin-2-ylmethoxy)-thieno[2,3-d]pyrimidine-6-carboxylic acid amide] | > 1000
NC(=O)c1sc2nc(OC[C@H]3CCC(=O)N3)nc(-c3cccc(Cl)c3)c2c1N [No 77, 5-Amino-4-(3-chloro-phenyl)-2-((R)-5-oxo-pyrrolidin-2-ylmethoxy)-thieno[2,3-d]pyrimidine-6-carboxylic acid amide] | 100 to 500
NC(=O)c1sc2nc(OCCCCC3NC(=O)NC3=O)nc(-c3cccc(Cl)c3)c2c1N (centres unmarked) [No 78, 5-Amino-4-(3-chloro-phenyl)-2-[4-(2,5-dioxo-imidazolidin-4-yl)-butoxy]-thieno[2,3-d]pyrimidine-6-carboxylic acid amide] | < 100
